# According to patent US7495024B2, “Phenylalkyl N-hydroxyureas for combating atherosclerotic plaque” (VIA Pharmaceuticals, Inc., priority 2006, dated 2009):
# Experiments:
# [1] = test system: ApoE-deficient mice; assay: Gross pathological evaluation of aortas with developed atherosclerotic plaque (Example 2, FIG. 2); assay type: in vivo; conditions: 28-week old ApoE-deficient mice, 28 days
# Source text: In Examples 1 and 2 knockout mice deficient in producing the protein Apolipoprotein E [apoE] were used. ApoE-deficient mice are known to spontaneously develop atherosclerotic plaque at 12-16 weeks, which process is accelerated by feeding the mice a high fat diet. Because the atherosclerotic lesions found in these mice are histologically similar to those found in humans, the ApoE-deficient mice are used as a model for assessing the effects of a drug on atherosclerotic plaque in humans.
# Four week old female ApoE-deficient knockout mice were fed a high-fat diet set forth in Example 1 for a period of 24 weeks to allow atherosclerotic plaque to build-up. […]
# The entire treatment was carried out by administering the vehicle or the dosage to the mice once a day for 28 days. […] At terminal sacrifice, aortas were harvested from 16 mice in each of the treatment groups and grossly evaluated, selected tissue from the remaining 4 mice per group were evaluated grossly and fixed and processed for histopathological analysis and quantitative determination of plaque burden. […]
# [2] = test system: ApoE-deficient mice; assay: Histopathological and quantitative assessment of plaque/lesion area in aortic root and aorta (Example 2, FIG. 3); assay type: in vivo; conditions: 28-week old ApoE-deficient mice, 28 days
# Method: Four week old female ApoE-deficient knockout mice were fed a high-fat diet set forth in Example 1 for a period of 24 weeks to allow atherosclerotic plaque to build-up. The 28 week old ApoE-deficient mice were then randomized to receive vehicle (0.9% sterile saline administered at 5 mL/kg or compound X administered at two different doses, 10 mg/kg and 50 mg/kg, each in a volume of 5 mL/kg (from concentrations of […] respectively) daily for 28 consecutive days. Saline vehicle and compound X were all prepared fresh daily and administered orally with a 22G gavage syringe. Doses were adjusted based on most recently obtained body weight. The following two treatment groups were tested and compared: 1) the first treatment group consisted of 20 female mice treated only with saline and 20 female mice treated with 10 mg/kg of compound X and 2) the second treatment group consisted of 20 female mice treated with vehicle and 20 female mice treated with 50 mg/kg of compound X.
# The entire treatment was carried out by administering the vehicle or the dosage to the mice once a day for 28 days. […] At terminal sacrifice, aortas were harvested from 16 mice in each of the treatment groups and grossly evaluated, selected tissue from the remaining 4 mice per group were evaluated grossly and fixed and processed for histopathological analysis and quantitative determination of plaque burden.
# For quantitative assessment of the atherosclerotic process, in FIG. 2 and FIG. 3, the aortic tree of mice was prepared and described by Tabibiazar, Wagner, et al. Physiol Genomics 22(2): 213-226 (2005). The amount of plaque/lesion area in the aortic root, as well as the entire aorta, was measured. Percent lesion areas were calculated as a total lesion area divided by the total surface area. […]
# For the quantitative assessment of the atherosclerotic process in FIG. 3, the amount of plaque/lesion area in the aortic root as well as the entire aorta was measured. Percent lesion area was calculated at total lesion area divided by total surface area.
# [3] = test system: patients suffering from Acute Coronary Syndrome (ACS); assay: Randomized, double blind, placebo-controlled study in patients with Acute Coronary Syndrome: biomarkers and MDCT (Example 3); assay type: in vivo, human; conditions: 25, 50 or 100 mg per day oral
# Method: In this study the plaque levels were determined by use of Multidetector (64 slice coronary) Computerized Tomography (MDCT) scan indicative of such plaque in male and female patients suffering from Acute Coronary Syndrome (ACS). The efficacy of this treatment in reducing the effects of cardiovascular disease was determined by the use of biomarkers for this disease. […] At the end of the twenty-four week period the plaque in the patients is analyzed using the Multidetector (64 slice coronary) Computerized Tomography (MDCT) scan. […] Thus, the groups take the following matching capsules at each daily administration of the study medication: • Placebo: two placebo capsules • 25 mg dose: one placebo capsule plus one 25 mg capsule • 50 mg dose: 1 placebo capsule plus one 50 mg capsule • 100 mg dose: two 50 mg capsules The following baseline assessments in each of the patients are made prior to the study: history and complete physical examination; focused physical exam (for signs of bleeding disorder); 12-Lead ECG; measurement of inflammatory biomarkers (LTB4 (ex vivo) measured at trough; LTE4 urine; hsCRP; MPO; MCP1 (CCL2); M-CSF (CSF-1); MIP-2 (Cxcl2); osteopontin (Spp1)); hematology; chemistries; urinalysis; serum pregnancy test for women of childbearing potential; and 64-slice coronary MDCT imaging with contrast. […]
compound,measurement,setting,value
"CC(C#Cc1ccc(Cc2ccc(F)cc2)s1)N(O)C(N)=O (stereo not shown) [compound X, N-[3-[5-[(4-fluorophenyl)methyl]-2-thienyl]-1-methyl-2-propynyl]-N-hydroxyurea]","atherosclerotic lesions in the proximal aorta, aortic arch, thoracic and abdominal aorta (gross pathological score)","[1]; 10 mg/kg/day or 50 mg/kg/day oral, vs vehicle",substantial reduction of atherosclerotic lesions
same,plaque burden in the proximal aorta and aortic arch compared to vehicle,[1]; 10 and 50 mg/kg/day oral,statistically significant reductions in plaque burden
same,atherosclerotic plaque formation in the aortic root (histopathological evaluation),"[2]; 10 mg/kg (p<0.07) and 50 mg/kg (p<0.001) oral, vs vehicle",dose dependent reduction of atherosclerotic plaque formation
same,reduction in mean lesion area compared to vehicle,"[2]; 50 mg/kg oral, statistically significant",approximately 45%
same,percent plaque lesion area in the aortas,"[2]; 10 and 50 mg/kg/day oral, vs vehicle, dose dependent",marked reduction of percent plaque lesion area
same,"levels of inflammatory biomarkers for cardiovascular disease, percentage of patients vs placebo group",[3]; 12 weeks of dosing,decrease in the levels of inflammatory biomarkers
same,"density and/or plaque volume of coronary noncalcified plaque index lesions by 64-slice MDCT, percentage of patients vs placebo group",[3]; 24 weeks of dosing,a change in the density and/or plaque volume
